Molecular target: T1, Steroid 17-alpha-hydroxylase/17,20 lyase (Rattus norvegicus, UniProt P11715)
T1 sequence (P11715 whole entry): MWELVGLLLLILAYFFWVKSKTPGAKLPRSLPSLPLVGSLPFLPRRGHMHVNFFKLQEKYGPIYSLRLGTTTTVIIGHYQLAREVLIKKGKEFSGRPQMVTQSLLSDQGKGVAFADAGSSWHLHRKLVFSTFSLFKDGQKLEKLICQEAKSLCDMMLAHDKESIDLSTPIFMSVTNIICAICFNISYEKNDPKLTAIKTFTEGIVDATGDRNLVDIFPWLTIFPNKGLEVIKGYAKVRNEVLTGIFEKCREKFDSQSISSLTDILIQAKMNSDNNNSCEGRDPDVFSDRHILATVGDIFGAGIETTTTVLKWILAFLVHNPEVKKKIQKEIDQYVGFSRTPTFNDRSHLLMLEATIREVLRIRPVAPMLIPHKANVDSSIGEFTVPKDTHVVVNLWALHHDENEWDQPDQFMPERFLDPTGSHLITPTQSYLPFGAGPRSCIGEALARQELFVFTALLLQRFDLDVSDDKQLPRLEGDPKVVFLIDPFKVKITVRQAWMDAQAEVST
Experiment: Inhibition Assay
Description: If a weakly binding metal-binding group is utilized, potency may be suboptimal. On the other hand, if a very tightly binding metal-binding group is utilized, selectivity for the target enzyme versus related metalloenzymes may be suboptimal. The lack of optimal selectivity can be a cause for clinical toxicity due to unintended inhibition of these off-target metalloenzymes. […] It is believed that this off-target inhibition is caused primarily by the indiscriminate binding of the currently utilized 1-imidazole to iron in the active site of CYP2C9, CYP2C19 and CYP3A4.

IC50: 220 nM
SMILES: CC(C)C(O)(c1ccc2cc(OC(F)F)c(OC(F)F)cc2c1)c1c[nH]nn1 (stereo unspecified) [US8623892, 3]
